viability, T/C, outcome and IC50 data for 13 compounds are collected here from PubChem BioAssay AID1845215 (Molecular Pharmacology Branch, DTP, NCI, 2023).

Where “and” joins values, the source holds several entries; their conditions need not be identical. Equal entries are not always repeated. Calls of active or inactive are those of the source. The calls were made as follows: active = viability on the fitted dose curve at most 10% of control; inactive = the rest.

The subject of this assay is SW 1271 complex tumor spheroid viability. In words: Anticancer human tumor SW 1271 cell line growth inhibition.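 As to IC50: spheroids exposed to agents for seven days before readout.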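 As to viability, T/C: spheroids exposed to agents for seven days before readout; percent of DMSO vehicle control luminescence so 100% = vehicle.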 Conditions: for viability, T/C: stronger effect = lower value. An excerpt:
Multicellular complex tumor spheroid response to DNA repair inhibitors in combination with DNA-damaging drugs
This study explores the anticancer activities of DNA-damaging drugs and inhibitors of DNA damage repair, both as single agents and in combinations. Complex tumor spheroids comprised of malignant cells, endothelial cells and mesenchymal stem cells served as an in vitro model for human solid tumors. This model system incorporates physiologically relevant features and patient-derived or established malignant cell lines with clinically relevant genetic alterations from many tumor types. Twenty-six patient-derived or established malignant cell lines were evaluated representing sarcoma, melanoma, small cell lung cancer (SCLC), non-small cell lung cancer (NSCLC), as well as bladder, ovarian and pancreatic cancers. The concentration ranges selected for each drug and investigational agent were based upon clinically achievable concentrations if the clinical Cmax of the agent was known.
Compounds. The drugs and compounds olaparib (NSC753686), talazoparib (NSC767125), berzosertib (NSC777718), elimusertib (NSC800525), nedisertib (NSC802822), VX-984 (NSC792969), AZD-1390 (NSC803789), temozolomide (NSC362856), topotecan (NSC609699), trabectedin (NSC813783), staurosporine (NSC755774), and gemcitabine (NSC613327) were obtained from the National Cancer Institute (NCI) Developmental Therapeutics Program Chemical Repository. The FDA-approved anticancer drug set is available from the Developmental Therapeutics Program at https://dtp.cancer.gov/organization/dscb/obtaining/available_plates.htm. […] The stock solutions were prepared in dimethyl sulfoxide (DMSO, Sigma-Aldrich, St. Louis, MO, cat. D2650) at 400-fold the tested concentration and stored at -70 degrees C. Prior to their use, the stock solutions were diluted in fresh medium and the final DMSO concentration in the assay was 0.25% (v/v). All drugs and investigational agents were tested over a range starting from a high concentration at or near the clinical Cmax and decreasing in half-log increments. If the clinical Cmax for an agent had not been determined, the highest concentration tested was 10 microM.
Cell Lines. The patient-derived cancer cell (PDC) lines: 156681-154-R-J1-PDC, 283228-195-R-J1-PDC, 287954-098-R-J1-PDC, 292921-168-R-J2-PDC, 349418-098-R-PDC, 425362-245-T-J1-PDC, 556581-035-R-J1-PDC, and BL0293-F563-PDC were received from the NCI Patient-Derived Models Repository (PDMR, https://pdmr.cancer.gov). The established cell lines HS-SY-2 (RRID:CVCL_8719), MPNST, and SYO-1 (RRID:CVCL_7146) were obtained from the Sloan Kettering Institute. The alveolar soft parts sarcoma cell line ASPS-1 (RRID:CVCL_S738) was established at the NCI and grown from internal seed stocks. The following established cell lines were purchased from the American Type Culture Collection (ATCC, Manassas, VA): G-401 (ATCC, cat. CRL-1441, RRID:CVCL_0270), SW982 (ATCC, cat. HTB-93, RRID:CVCL_1734), VA-ES-BJ (ATCC, cat. CRL-2138, RRID:CVCL_1785), NCI-H719 (ATCC, cat. CRL-5837, RRID:CVCL_1582), NCI-H196 (ATCC, cat. CRL-5823, RRID:CVCL_1509), NCI-H841 (ATCC, cat. CRL-5845, RRID:CVCL_1595), NCI-H1618 (ATCC, cat. CRL-5879, RRID:CVCL_1480), NCI-H1876 (ATCC, cat. CRL-5902, RRID:CVCL_1503), DMS 114 (ATCC, cat. CRL-2066; RRID:CVCL_1174), NCI-H211 (ATCC, cat. CRL-5824; RRID:CVCL_1529), and SW 1271 (ATCC, cat. CRL-2177, RRID:CVCL_1716). The small cell lung cancer cell line COR-L88 was purchased from Sigma-Aldrich (cat. 92031917-1VL, RRID:CVCL_1141). The non-small cell lung cancer cell lines NCI-H226 (RRID:CVCL_1544) and NCI-H322M (RRID:CVCL_1557) were established at the NCI and grown from internal seed stocks. Pooled donor human umbilical vein endothelial cells (HUVEC, Lonza, cat. CC-2519) and human mesenchymal stem cells (hMSC, Lonza, cat. PT-2501) were purchased from Lonza (Walkersville, MD).
Cell Culture. All cells were maintained in an incubator at 37 degrees C and 5% CO2 with 95% humidity. […]

Setting [1] is: compound alone, run of 11/07/2019.
[2] abbreviates: compound alone, run of 12/16/2019.

The term viability, T/C denotes the ratio of treated to control. One may read the IC50 as the midpoint of a concentration-inhibition curve. On to `CC(C)n1c(=O)n(C)c2cnc3cc(F)c(-c4ccc(OCCCN5CCCCC5)nc4)cc3c21`, for which the viability, T/C runs as follows: (compound 0.0316 µM) 94.1% and 98.9% and 79.6%; (compound 0.1 µM) 86.3% and 78.7%; (compound 0.316 µM) 92.8% and 94.3% and 72.7%; (compound 1 µM) 94.6% and 83.5% and 71.3%; (compound 3.16 µM) 86.3% and 70.8% and 59.2%; (compound 10 µM) 60.3% and 48.2% and 20.9%. Besides, the outcome (compound 0.1 µM) was inactive. The concentration for half-maximal inhibition (IC50) (curve of compound) is > 10000 nM and 9160 nM and 4080 nM.

As to `CC1COCCN1c1cc(-c2ccnn2C)c2ccnc(-c3ccn[nH]3)c2n1` (configuration not stated), the viability, T/C by setting is: (compound 0.0316 µM) 76.6% and 87.1% and 78.6%; (compound 0.1 µM) 50.5% and 44.6% and 58.8%; (compound 0.316 µM) 25.2% and 31.1% and 21.6%; (compound 1 µM) 4.08% and 5.26% and 4.1%; (compound 3.16 µM) 2.44% and 3.8% and 2.04%; (compound 10 µM) 2.18% and 3.01% and 1.85%. Further, where the note is “curve of compound”, the IC50 was 107 nM and 93.4 nM and 131 nM.

For the compound `CC[C@@]1(O)C(=O)OCc2c1cc1n(c2=O)Cc2cc3c(CN(C)C)c(O)ccc3nc2-1`, the viability, T/C (compound 0.003 µM) was 88.3% [middle of 10 runs]; the viability, T/C (compound 0.03 µM) was 28.2% [middle of 10 runs]; the viability, T/C (compound 0.0949 µM) is 27.2% [middle of 10 runs]; the viability, T/C (compound 0.3 µM) was 16.7% [middle of 10 runs]. Besides, the IC50 runs as follows: under setting [1], 8.96 nM [middle of 5 runs]; under setting [2], 11.7 nM [middle of 5 runs].

Turning to `CNCc1ccc(-c2cc(-c3nc(-c4ccc(S(=O)(=O)C(C)C)cc4)cnc3N)on2)cc1`, the viability, T/C runs as follows: (compound 0.00949 µM) 105% and 99.4% and 104%; (compound 0.03 µM) 103% and 101% and 109%; (compound 0.0949 µM) 92% and 70.1% and 88.4%; (compound 0.3 µM) 26.4% and 24.2% and 45.3%; (compound 0.949 µM) 6.64% and 6.62% and 10.9%; (compound 3 µM) 0.13% and 0.12% and 0.2%. In addition, for the setting “curve of compound”, the IC50 was 199 nM and 159 nM and 266 nM.

In the case of `COc1cc(C)[nH]c(=O)c1CN1CCc2c(Cl)cc(C(OC)C3COC3)c(Cl)c2C1=O` (configuration not stated), the viability, T/C is, setting by setting: (compound 0.0316 µM) 98.5% and 98.1% and 104%; (compound 0.1 µM) 101% and 92.7% and 98.5%; (compound 0.316 µM) 102% and 86.8% and 91.5%; (compound 1 µM) 105% and 89.8% and 94.6%; (compound 3.16 µM) 94.8% and 79.1% and 95.3%; (compound 10 µM) 84% and 75.4% and 81.9%. For the same compound, the IC50 (curve of compound) is more than 10000 nM.

As for `COc1cc2c(cc1O)CCNC21CSC2c3c(OC(C)=O)c(C)c4c(c3C(COC1=O)N1C(O)C3Cc5cc(C)c(OC)c(O)c5C(C21)N3C)OCO4` (configuration not stated), the viability, T/C (compound 30 pM) is 89.8% [middle of 10 runs]; the viability, T/C (compound 94.9 pM) was 64.2% [middle of 10 runs]; the viability, T/C (compound 0.0003 µM) is 34.4% [middle of 10 runs]; the viability, T/C (compound 0.000949 µM) is 3.63% [middle of 10 runs]; the viability, T/C (compound 0.003 µM) was 0.11% [middle of 6 runs]. Further, the concentration for half-maximal inhibition (IC50) under setting [2] is 0.156 nM [middle of 10 runs].

Turning to `COc1ccc([C@@H](O)c2cc(-c3ncnc4cc(N5CCOCC5)ccc34)c(F)cc2Cl)nn1`, the viability, T/C (compound 0.0316 µM) was 92.9% and 91.6% and 101%; the viability, T/C (compound 0.1 µM) was 93.1% and 83% and 92.6%; the viability, T/C (compound 0.316 µM) was 92.8% and 78.7% and 83.9%; the viability, T/C (compound 1 µM) was 77.2% and 72.9%; the viability, T/C (compound 3.16 µM) was 44.9% and 38.3% and 44%; the viability, T/C (compound 10 µM) was 8.13% and 13.3% and 6.11%. Besides, the outcome (compound 1 µM) was inactive. In addition, the IC50 (curve of compound) was 2630 nM and 1790 nM and 2520 nM.

Turning to `Cc1cc(C)c(CNC(=O)c2cc(-c3ccc(CN4CCOCC4)cc3)cc3c2cnn3C2CCCC2)c(=O)[nH]1`, the viability, T/C reads like this: (compound 0.0316 µM) 99.2% and 98.8% and 97.6%; (compound 0.1 µM) 95.9% and 99.6% and 92.9%; (compound 0.316 µM) 96.5% and 95.6% and 98.5%; (compound 1 µM) 94.5% and 91.5% and 91.4%; (compound 3.16 µM) 98.9% and 85.2% and 85.7%; (compound 10 µM) 85.4% and 73% and 66.3%. Moreover, for the setting “curve of compound”, the IC50 was more than 10000 nM.

Regarding `Cc1sc2c(c1C)C(c1ccc(Cl)cc1)=NC(CC(=O)Nc1ccc(O)cc1)c1nnc(C)n1-2` (configuration not stated), the viability, T/C (compound 0.00949 µM) was 112% and 133% and 111%; the viability, T/C (compound 0.03 µM) is 98.6% and 108% and 112%; the viability, T/C (compound 0.0949 µM) is 38.7% and 40.3% and 67.7%; the viability, T/C (compound 0.3 µM) is 4.84% and 5.32% and 10.5%; the viability, T/C (compound 0.949 µM) is 1.98% and 1.57% and 1.36%; the viability, T/C (compound 3 µM) was 1.53% and 0.84% and 1.11%. For the same compound, for the setting “curve of compound”, the half-inhibitory concentration (IC50) was 76.2 nM and 80.2 nM and 136 nM.

As for `Cn1ncnc1[C@H]1c2n[nH]c(=O)c3cc(F)cc(c23)N[C@@H]1c1ccc(F)cc1`, the viability, T/C (compound 0.00949 µM) is 39.3% and 40% and 67.2%; the viability, T/C (compound 0.03 µM) was 31.9% and 32.7% and 44.5%; the viability, T/C (compound 0.0949 µM) was 21.2% and 24.7% and 35.2%; the viability, T/C (compound 0.3 µM) was 24.9% and 26.4% and 34.4%; the viability, T/C (compound 0.949 µM) was 25.2% and 26.3% and 30.4%; the viability, T/C (compound 3 µM) is 21.1% and 25.1% and 26.3%. Also, the half-maximal inhibitory concentration (IC50) (curve of compound) is < 9.49 nM and 23.5 nM.

On to `Cn1nnc2c(C(N)=O)ncn2c1=O`, for which the viability, T/C is 97% [middle of 10 runs] (compound 1 µM) and 103% [middle of 10 runs] (compound 3.16 µM). Moreover, the 50% inhibitory concentration (IC50) under setting [1] was > 100000 nM and 20700 nM.

As for `O=C(c1cc(Cc2n[nH]c(=O)c3ccccc23)ccc1F)N1CCN(C(=O)C2CC2)CC1`, the viability, T/C runs as follows: (compound 0.0949 µM) 91.1% and 93% and 93.6%; (compound 0.3 µM) 77.1% and 81.2% and 80.7%; (compound 0.949 µM) 77% and 74.6% and 75.7%; (compound 3 µM) 41% and 45.6% and 42.4%; (compound 9.49 µM) 29.3% and 28.4% and 28.2%; (compound 30 µM) 24.2% (2×) and 16.6%. Also, the IC50 (curve of compound) was 2270 nM and 2550 nM and 2470 nM.

Take `[2H]c1nc(C)nc([2H])c1-c1cc(NC[C@@H](C)c2cccc3c(C(=O)NC)ccnc23)ncn1`: the viability, T/C was 96.9% and 105% and 108% (compound 0.0316 µM); 98.7% and 104% and 106% (compound 0.1 µM); 101% and 95.6% and 96.8% (compound 0.316 µM); 104% (2×) and 99.2% (compound 1 µM); 98% and 96.2% and 104% (compound 3.16 µM); 90.8% and 102% and 96.7% (compound 10 µM). The IC50 (curve of compound) is more than 10000 nM.
